Measurements: ChEMBL document CHEMBL1833881, “Synthesis of a new trifluoromethylketone analogue of l-arginine and contrasting inhibitory activity against human arginase I and histone deacetylase 8” (Bioorg Med Chem Lett, 2011)
Active and inactive are the calls of the source. The rule behind the calls is not given here.

Tests used:
[1] = target: T1, Arginase-1 (Homo sapiens) (UniProt P05089); assay: (§1) Displacement of [14C-guanidino]-L-arginine from human recombinant full length arginase 1 expressed in Escherichia coli BL21(DE3) by fixed point assay
T1 sequence (whole entry): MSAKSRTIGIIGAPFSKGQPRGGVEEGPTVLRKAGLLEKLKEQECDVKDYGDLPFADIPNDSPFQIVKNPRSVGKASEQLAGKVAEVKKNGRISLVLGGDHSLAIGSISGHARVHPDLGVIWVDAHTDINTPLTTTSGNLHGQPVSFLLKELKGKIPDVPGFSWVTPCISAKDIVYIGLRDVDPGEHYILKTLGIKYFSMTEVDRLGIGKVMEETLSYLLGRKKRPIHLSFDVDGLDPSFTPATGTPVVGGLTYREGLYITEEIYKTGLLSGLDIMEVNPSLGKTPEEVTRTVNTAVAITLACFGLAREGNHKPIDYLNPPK

[2] = Ratio of IC50 for Mycoplana ramosa acetylpolyamine amidohydrolase to IC50 for HDAC8
Arginase-1 = target: T2, Arginase-1 (Homo sapiens, UniProt P05089); assay: as §1
T2 sequence (P05089 whole entry): T1 sequence (whole entry)

Histone deacetylase 4 = Histone deacetylase 4 (Homo sapiens, UniProt P56524); assay: Inhibition of human HDAC4 catalytic domain (residues Thr648-Thr1057) expressed in Escherichia coli BL21using fluorogenic substrate by fluorescence assay
Chain of Histone deacetylase 4 (P56524 whole entry, the tested form may be a part): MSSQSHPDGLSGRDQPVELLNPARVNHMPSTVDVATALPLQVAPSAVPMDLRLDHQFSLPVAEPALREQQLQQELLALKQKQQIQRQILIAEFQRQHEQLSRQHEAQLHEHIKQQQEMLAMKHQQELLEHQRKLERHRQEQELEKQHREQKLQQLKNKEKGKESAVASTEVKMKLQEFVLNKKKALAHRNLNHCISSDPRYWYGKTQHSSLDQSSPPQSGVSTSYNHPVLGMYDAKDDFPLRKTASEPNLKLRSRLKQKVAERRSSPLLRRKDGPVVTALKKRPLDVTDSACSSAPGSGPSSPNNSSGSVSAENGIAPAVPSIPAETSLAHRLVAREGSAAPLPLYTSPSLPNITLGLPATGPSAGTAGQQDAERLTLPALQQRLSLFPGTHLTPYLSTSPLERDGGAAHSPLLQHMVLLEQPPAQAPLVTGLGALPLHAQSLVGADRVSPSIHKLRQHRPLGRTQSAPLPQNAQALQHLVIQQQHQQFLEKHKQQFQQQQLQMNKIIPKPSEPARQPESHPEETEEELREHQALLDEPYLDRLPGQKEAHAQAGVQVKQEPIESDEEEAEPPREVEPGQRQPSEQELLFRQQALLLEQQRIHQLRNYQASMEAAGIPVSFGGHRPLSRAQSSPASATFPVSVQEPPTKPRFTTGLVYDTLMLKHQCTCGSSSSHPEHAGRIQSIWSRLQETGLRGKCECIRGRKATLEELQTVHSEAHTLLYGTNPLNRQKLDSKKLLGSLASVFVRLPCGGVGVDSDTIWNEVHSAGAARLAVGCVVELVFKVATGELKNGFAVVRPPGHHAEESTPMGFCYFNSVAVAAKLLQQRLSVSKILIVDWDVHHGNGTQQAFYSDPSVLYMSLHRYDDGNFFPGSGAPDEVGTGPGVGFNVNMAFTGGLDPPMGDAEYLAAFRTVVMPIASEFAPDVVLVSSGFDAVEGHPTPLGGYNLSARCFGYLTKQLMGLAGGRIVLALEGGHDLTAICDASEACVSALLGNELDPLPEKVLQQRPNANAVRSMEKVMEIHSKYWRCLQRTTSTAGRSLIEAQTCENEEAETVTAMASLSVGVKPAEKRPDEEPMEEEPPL

With N[C@@H](CCCCC(=O)C(F)(F)F)C(=O)O the inhibition [1] was “inactive” and the Ratio IC50 [2] was 73.

N[C@@H](CCCCC=O)C(=O)O gave a Kd (Arginase-1) of 60 µM.

Work on O=C(c1ccc(C(=O)C(F)(F)F)s1)N1CCn2c(-c3ccccc3)cnc2C1 yielded an IC50 (Histone deacetylase 4) of 0.367 µM.
